In PMC12160547, “Identification of a Novel Small Molecule STING Agonist Reshaping the Immunomicroenvironment of Pancreatic Ductal Adenocarcinoma” (International Journal of Biological Sciences, 2025):

Experiments:
[1] = test system: subcutaneous pancreatic tumor; assay: Subcutaneous pancreatic tumor model; assay type: in vivo, C57BL/6 mice; conditions: co-administered with D166
Description: C57BL/6 mice were obtained from Phenotek (Shanghai) and randomly assigned to groups, with a minimum of six mice per group. For the subcutaneous tumor model, approximately 5 × 10^5 tumor cells were suspended in 150 μL PBS and injected into the left flank of the mice. Tumor size was measured every four days starting from day 7 post-injection. On days 9, 12, and 15, the mice were administered three different concentrations of the drug via peritumoral injection, while the Control group received only the solvent. The mice were euthanized on day 25, and tumors were excised, weighed, and further analyzed.
(§1) Multiplex cytokine detection was performed using Luminex cytokine bead array technology provided by WayenBio, Shanghai. In the mouse tumor model, levels of multiple cytokines were simultaneously measured and normalized to tumor weight. For the quantification of specific cytokines, such as IL-6 and IFN-β, enzyme-linked immunosorbent assay (ELISA) kits from Abclonal were used. The assays were conducted according to the manufacturer's instructions.

[2] = test system: cGAS-STING pathway; assay: cGAS-STING pathway, IFN-β and ISG readout in pancreatic cancer organoids; assay type: cell-based, human; conditions: TBK1 inhibitor added to culture medium
Description: Tumor tissues or cells were thoroughly lysed in RIPA buffer containing protease and phosphatase inhibitors. The lysates were then centrifuged to collect the supernatant. Proteins were separated by electrophoresis in MOPS buffer and subsequently transferred onto a PVDF membrane. After blocking, the membrane was sequentially incubated with the primary antibody, secondary antibody, and chemiluminescent substrate (ECL) for imaging.
(§2) RNA from tumor tissues or cells was extracted using the SteadyPure Universal RNA Extraction Kit (Accurate Biology) and reverse transcribed into cDNA with the Evo M-MLV Reverse Transcription Kit (Accurate Biology). Relative RNA expression levels were quantified using 2X Universal SYBR Green Fast qPCR Mix (Abclonal), and the results were recorded on the qTOWER®3 84 Real-Time PCR system.
as §1

[3] = cited from earlier work
[4] = target: T1, h-STING (Homo sapiens, UniProt Q86WV6, G230A/R293Q/R71H); assay: THP1-Dual reporter activation fold; assay type: cell-based
T1 construct: THP1-Dual Fold (10 μM); endogenous in cells; host or cells: THP1-Dual

[5] = target: T2, m-STING (Mus musculus, UniProt Q3TBT3); assay: Raw-lucia reporter activation fold; assay type: cell-based
T2 construct: Raw-lucia Fold (50 μM); endogenous in cells; host or cells: RAW-Lucia
T2 sequence (Q3TBT3 1-378): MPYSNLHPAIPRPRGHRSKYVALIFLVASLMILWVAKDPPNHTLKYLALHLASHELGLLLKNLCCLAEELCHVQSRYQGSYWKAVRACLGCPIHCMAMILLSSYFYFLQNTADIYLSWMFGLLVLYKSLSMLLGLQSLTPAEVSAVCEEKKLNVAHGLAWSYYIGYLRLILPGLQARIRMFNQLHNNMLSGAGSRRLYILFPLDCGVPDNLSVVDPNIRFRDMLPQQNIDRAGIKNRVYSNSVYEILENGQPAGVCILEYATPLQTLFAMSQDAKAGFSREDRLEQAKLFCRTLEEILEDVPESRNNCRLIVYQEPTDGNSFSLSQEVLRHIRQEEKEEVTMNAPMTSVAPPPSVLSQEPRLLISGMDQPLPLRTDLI

[6] = test system: STING signaling; assay: Relative gene expression in RAW-Lucia cells (RT-qPCR); assay type: cell-based, mouse
Description: as §2

[7] = Pharmacokinetic parameters, i.v. and p.o.; assay type: in vivo
[8] = test system: cGAS-STING pathway; design: method as in PMID 31036082; conditions: cited from earlier work

T1 sequence (Q86WV6 whole entry R71H/G230A/R293Q): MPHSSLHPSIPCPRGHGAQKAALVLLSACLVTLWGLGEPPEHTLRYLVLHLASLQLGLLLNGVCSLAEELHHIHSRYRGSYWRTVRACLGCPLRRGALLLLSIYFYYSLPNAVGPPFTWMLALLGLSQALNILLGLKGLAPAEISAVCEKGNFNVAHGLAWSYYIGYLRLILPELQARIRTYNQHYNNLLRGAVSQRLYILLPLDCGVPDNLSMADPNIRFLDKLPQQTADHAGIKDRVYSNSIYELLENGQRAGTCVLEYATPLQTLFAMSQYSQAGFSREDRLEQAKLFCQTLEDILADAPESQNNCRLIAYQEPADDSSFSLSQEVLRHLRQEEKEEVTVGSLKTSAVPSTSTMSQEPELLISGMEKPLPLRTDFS

Q: With O=C(NCCCNc1nc(Nc2cccc(CN3CCOCC3)c2)ncc1C1CC1)C1CCC1 [MRT67037, reference compound] as the molecule, how does the “effect on the tumor-killing effect of D166” value [1] read?
A: counteracted the tumor-killing effect of D166

Q: And the “effect on D166-induced ISG activation in organoids” value [2]?
A: rescued the D166-induced ISG activation

Q: For Nc1ncnc2c1ncn2[C@@H]1O[C@@H]2COP(=O)([S-])O[C@@H]3[C@H](O)[C@@H](COP([O-])(=S)O[C@H]2[C@H]1O)O[C@H]3n1cnc2c(N)ncnc21.[Na+].[Na+] (stereo partly drawn) [ADU-S100], which “reason for termination in phase I clinical trials” value [3] is on record?
A: poor drug stability and systemic toxicity

Q: Which “THP1-Dual Fold (10 μM)” value [4] does the source give for COc1cc2cc(C(=O)CCC(=O)O)sc2cc1OC [MSA-2, reference compound] here?
A: 43.09 Fold

Q: What about the “Raw-lucia Fold (50 μM)” value [5] of the same molecule?
A: 22.59 Fold

Q: And the “Relative expression (Cxcl10/actin)” value [6]?
A: 179.40 ± 2.58

Q: What about the “Relative expression (Ifnb/actin)” value [6] of the same molecule?
A: 125.70 ± 3.06

Q: What about the AUCInf ([7]; i.v., average of three runs) of the same molecule?
A: 1372 ng·h/mL

Q: And the CL ([7]; i.v., average of three runs)?
A: 12.3 mL/min/kg

Q: What about the MRTInf ([7]; i.v., average of three runs) of the same molecule?
A: 15.6 min

Q: What about the T1/2 ([7]; i.v., average of three runs) of the same molecule?
A: 39.6 min

Q: And the Vz ([7]; i.v., average of three runs)?
A: 0.70 L/kg

Q: And the AUCInf ([7]; p.o., average of three runs)?
A: 2852 ng·h/mL

Q: And the MRTInf ([7]; p.o., average of three runs)?
A: 53.4 min

Q: What about the T1/2 ([7]; p.o., average of three runs) of the same molecule?
A: 65.4 min

Q: What about the F ([7]; p.o., oral bioavailability) of the same molecule?
A: 69.3%

Q: For Cc1ccc2c(=O)c3cccc(CC(=O)O)c3oc2c1C [DMXAA, 5,6-Dimethylxanthenone-4-acetic acid], which “species in which the cGAS-STING pathway is activated” value [8] is on record?
A: only in mice

Q: Which “efficacy in clinical study” value ([3]; single-agent treatment group) does the source give for Nc1nc2c(ncn2[C@@H]2O[C@@H]3CO[P@@](=O)(S)O[C@H]4[C@H](F)[C@H](n5cnc6c(N)ncnc65)O[C@@H]4CO[P@@](=O)(S)O[C@@H]2[C@@H]3F)c(=O)[nH]1 [MK-1454] here?
A: limited efficacy as a monotherapy
